Data taken from patent US20260008775A1, “AZOLE MODULATORS OF CHOLESTEROL BIOSYNTHESIS AND THEIR USE FOR PROMOTING REMYELINATION” (GENENTECH, INC., priority 2022, published 2026).

Tests used:
[1] = system: EpiSC-derived OPCs; experiment: In vitro phenotypic screening of OPCs, MBP high-content imaging (percentage of oligodendrocytes); assay type: cell-based, mouse; details: Mus musculus, 72 h, 3 days, MBP stain, dose-response 0.5 nM to 1000 nM; read-out: OPC EC50
Method in brief: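 EC50 was fitted by Hill equation to the MBP-positive oligodendrocyte percentage from imaging of fixed, MBP- and DAPI-stained cells. Treatment lasted 3 days at 37 °C, final doses 0.5–1000 nM over 8 points, in growth factor-free N2B27. Cells were EpiSC-derived OPCs, tested in at least two independent platings.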

[2] = system: zymostenol accumulation (EBP) in EpiSC-derived OPCs; experiment: GC/MS-based sterol profiling, zymostenol accumulation in EpiSC-derived OPCs; assay type: cell-based, mouse; details: Mus musculus, 24 h, EpiSC-derived OPCs, 24 hr, 8 doses from 0.15 nM to 333 nM; read-out: Mouse Zymostenol GCMS EC50
Method in brief: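 Zymostenol level is expressed relative to that after 24 h with 100 nM positive-control reference, measured by full-scan GC/MS (m/z 458) with cholesterol-d7 internal standard after BSTFA derivatisation. Cells were EpiSC-derived OPCs, 100,000/well in N2B27 without growth factors, treated 24 h, from two or more independent platings.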

[3] = biological target: human emopamil binding protein and human 7-dehydrocholesterol reductase (hEBP-DHCR7) (Homo sapiens (Human), UniProt Q15125); experiment: hEBP-DHCR7 radioligand binding assay (filter binding, membranes of co-expressing HEK293 cells); details: competition with [3H] radioligand, 8 doses 0.06 to 5000 nM, Ki calculated from IC50
Method in brief: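 Compound, either single dose 1 μM or eight 5-fold dilutions from 0.06 to 5000 nM, competed with a [3H]-labelled ligand added at 25 nM for binding to co-expressing HEK293 membranes. IC50 came from nonlinear regression, with full block and DMSO as controls, then Cheng–Prusoff conversion to Ki.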

Chain of human emopamil binding protein and human 7-dehydrocholesterol reductase (hEBP-DHCR7) (Q15125 whole entry): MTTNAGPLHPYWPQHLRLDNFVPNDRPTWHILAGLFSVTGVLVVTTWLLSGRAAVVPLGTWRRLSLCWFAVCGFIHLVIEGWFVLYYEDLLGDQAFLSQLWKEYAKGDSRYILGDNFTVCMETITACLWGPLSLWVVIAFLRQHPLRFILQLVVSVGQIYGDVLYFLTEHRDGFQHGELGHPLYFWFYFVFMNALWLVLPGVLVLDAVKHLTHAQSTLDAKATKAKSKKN

EC50 [1] [nM] | EC50 [2] [nM] | Ki [3] [nM] | Compound
8.27 | 4 | 13.4 | CC(C)n1nc(-c2ccnc(C(F)(F)F)c2)cc1[C@H]1[C@@H]2C[C@H](N3CCOCC3)C[C@@H]21 [Compound 172, 4-((1R,3r,5S,6r)-6-(1-Isopropyl-3-(2-(trifluoromethyl)pyridin-4-yl)-1H-pyrazol-5-yl)bicyclo[3.1.0]hexan-3-yl)morpholine]
22.3 | 4 | 7.81 | CC(C)n1nc(-c2ccc(C(F)(F)F)cc2)cc1[C@H]1[C@@H]2C[C@H](N3CCOCC3)C[C@@H]21 [Compound 173, 4-((1R,3r,5S,6r)-6-(1-Isopropyl-3-(4-(trifluoromethyl)phenyl)-1H-pyrazol-5-yl)bicyclo[3.1.0]hexan-3-yl)morpholine]
11.3 | 5.46 | 14.2 | CC(C)n1nc(-c2cccc(C(F)(F)F)c2)cc1[C@H]1[C@@H]2C[C@@H](N3CCCOCC3)C[C@@H]21 [Compound 175*, 4-((1R,3r,5S,6r)-6-(1-Isopropyl-3-(3-(trifluoromethyl)phenyl)-1H-pyrazol-5-yl)bicyclo[3.1.0]hexan-3-yl)-1,4-oxazepane]
1.82 | 1.71 | 8.64 | CC(C)n1nc(-c2cccc(C(F)(F)F)c2)cc1[C@H]1[C@@H]2C[C@H](N3CCCOCC3)C[C@@H]21 [Compound 176*, 4-((1R,3s,5S,6r)-6-(1-isopropyl-3-(3-(trifluoromethyl)phenyl)-1H-pyrazol-5-yl)bicyclo[3.1.0]hexan-3-yl)-1,4-oxazepane]
9.82 | 4.16 | 15.5 | CC(C)n1nc(-c2cncc(Cl)c2)cc1[C@H]1[C@@H]2C[C@@H](N3CCCOCC3)C[C@@H]21 [Compound 177*, 4-((1R,3s,5S,6r)-6-(3-(5-Chloropyridin-3-yl)-1-isopropyl-1H-pyrazol-5-yl)bicyclo[3.1.0]hexan-3-yl)-1,4-oxazepane]
555 | 65.6 | 35.8 | CC(C)n1nc(-c2cncc(Cl)c2)cc1[C@H]1[C@@H]2C[C@H](N3CCCOCC3)C[C@@H]21 [Compound 178*, 4-((1R,3r,5S,6r)-6-(3-(5-chloropyridin-3-yl)-1-isopropyl-1H-pyrazol-5-yl)bicyclo[3.1.0]hexan-3-yl)-1,4-oxazepane]
26.4 | 0.952 | 10.9 | CC(C)n1nc(-c2ccc(C#N)cc2)cc1[C@H]1[C@@H]2C[C@H](N3CCCOCC3)C[C@@H]21 [Compound 179*, 4-(5-((1R,3r,5S,6r)-3-(1,4-Oxazepan-4-yl)bicyclo[3.1.0]hexan-6-yl)-1-isopropyl-1H-pyrazol-3-yl)benzonitrile]
124 | 24.5 | 30.6 | CC(C)n1nc(-c2ccc(C#N)cc2)cc1[C@H]1[C@@H]2C[C@@H](N3CCCOCC3)C[C@@H]21 [Compound 180*, 4-(5-((1R,3s,5S,6r)-3-(1,4-oxazepan-4-yl)bicyclo[3.1.0]hexan-6-yl)-1-isopropyl-1H-pyrazol-3-yl)benzonitrile]
12.4 | 7 | 10.1 | CC(C)n1nc(-c2ccc(C(F)(F)F)cc2)cc1[C@H]1[C@@H]2C[C@H](N3CCCOCC3)C[C@@H]21 [Compound 181*, 4-((1R,3r,5S,6r)-6-(1-Isopropyl-3-(4-(trifluoromethyl)phenyl)-1H-pyrazol-5-yl)bicyclo[3.1.0]hexan-3-yl)-1,4-oxazepane]
36.9 | 18.5 | 15.8 | CC(C)n1nc(-c2ccc(C(F)(F)F)cc2)cc1[C@H]1[C@@H]2C[C@@H](N3CCCOCC3)C[C@@H]21 [Compound 182*, 4-((1R,3s,5S,6r)-6-(1-isopropyl-3-(4-(trifluoromethyl)phenyl)-1H-pyrazol-5-yl)bicyclo[3.1.0]hexan-3-yl)-1,4-oxazepane]
13.1 | 8.6 | 10.6 | CC(C)n1nc(-c2ccc(F)cc2)cc1[C@H]1[C@@H]2C[C@H](N3CCCOCC3)C[C@@H]21 [Compound 183*, 4-((1R,3r,5S,6r)-6-(3-(4-Fluorophenyl)-1-isopropyl-1H-pyrazol-5-yl)bicyclo[3.1.0]hexan-3-yl)-1,4-oxazepane]
55.9 | 27.1 | 21.3 | CC(C)n1nc(-c2ccc(F)cc2)cc1[C@H]1[C@@H]2C[C@@H](N3CCCOCC3)C[C@@H]21 [Compound 184*, 4-((1R,3s,5S,6r)-6-(3-(4-fluorophenyl)-1-isopropyl-1H-pyrazol-5-yl)bicyclo[3.1.0]hexan-3-yl)-1,4-oxazepane]
11.3 | 7.66 | 12 | CC(C)n1nc(-c2ccc(OC(F)(F)F)cc2)cc1[C@H]1[C@@H]2C[C@H](N3CCCOCC3)C[C@@H]21 [Compound 185*, 4-((1R,3r,5S,6r)-6-(1-Isopropyl-3-(4-(trifluoromethoxy)phenyl)-1H-pyrazol-5-yl)bicyclo[3.1.0]hexan-3-yl)-1,4-oxazepane]
431 | 56.7 | 20.6 | CC(C)n1nc(-c2ccc(OC(F)(F)F)cc2)cc1[C@H]1[C@@H]2C[C@@H](N3CCCOCC3)C[C@@H]21 [Compound 186*, 4-((1R,3s,5S,6r)-6-(1-isopropyl-3-(4-(trifluoromethoxy)phenyl)-1H-pyrazol-5-yl)bicyclo[3.1.0]hexan-3-yl)-1,4-oxazepane]
37.3 | 7.75 | 20.3 | CC(C)n1nc(-c2cncc(F)c2)cc1[C@H]1[C@@H]2C[C@H](N3CCCOCC3)C[C@@H]21 [Compound 187*, 4-((1R,3r,5S,6r)-6-(3-(5-Fluoropyridin-3-yl)-1-isopropyl-1H-pyrazol-5-yl)bicyclo[3.1.0]hexan-3-yl)-1,4-oxazepane]
549 | 122 | 169 | CC(C)n1nc(-c2cncc(F)c2)cc1[C@H]1[C@@H]2C[C@@H](N3CCCOCC3)C[C@@H]21 [Compound 188*, 4-((1R,3s,5S,6r)-6-(3-(5-fluoropyridin-3-yl)-1-isopropyl-1H-pyrazol-5-yl)bicyclo[3.1.0]hexan-3-yl)-1,4-oxazepane]
3.32 | 3.43 | 9.14 | CC(C)n1nc(-c2cccc(OC(F)(F)F)c2)cc1[C@H]1[C@@H]2C[C@H](N3CCCOCC3)C[C@@H]21 [Compound 189*, 4-((1R,3r,5S,6r)-6-(1-isopropyl-3-(3-(trifluoromethoxy)phenyl)-1H-pyrazol-5-yl)bicyclo[3.1.0]hexan-3-yl)-1,4-oxazepane]
25.1 | 10.9 | 9.63 | CC(C)n1nc(-c2cccc(OC(F)(F)F)c2)cc1[C@H]1[C@@H]2C[C@@H](N3CCCOCC3)C[C@@H]21 [Compound 190*, 4-((1R,3s,5S,6r)-6-(1-isopropyl-3-(3-(trifluoromethoxy)phenyl)-1H-pyrazol-5-yl)bicyclo[3.1.0]hexan-3-yl)-1,4-oxazepane]
8.52 | 2.66 | 8.04 | CC(C)n1nc(-c2cccc(C#N)c2)cc1[C@H]1[C@@H]2C[C@H](N3CCCOCC3)C[C@@H]21 [Compound 191*, 3-(5-((1R,3r,5S,6r)-3-(1,4-Oxazepan-4-yl)bicyclo[3.1.0]hexan-6-yl)-1-isopropyl-1H-pyrazol-3-yl)benzonitrile]
61.6 | 22.7 | 12.6 | CC(C)n1nc(-c2cccc(C#N)c2)cc1[C@H]1[C@@H]2C[C@@H](N3CCCOCC3)C[C@@H]21 [Compound 192*, 3-(5-((1R,3s,5S,6r)-3-(1,4-oxazepan-4-yl)bicyclo[3.1.0]hexan-6-yl)-1-isopropyl-1H-pyrazol-3-yl)benzonitrile]
7.12 | 5.41 | 7.29 | CC(C)n1nc(-c2ccccc2F)cc1[C@H]1[C@@H]2C[C@H](N3CCCOCC3)C[C@@H]21 [Compound 193*, 4-((1R,3r,5S,6r)-6-(3-(2-Fluorophenyl)-1-isopropyl-1H-pyrazol-5-yl)bicyclo[3.1.0]hexan-3-yl)-1,4-oxazepane]
131 | 42.3 | 13.1 | CC(C)n1nc(-c2ccccc2F)cc1[C@H]1[C@@H]2C[C@@H](N3CCCOCC3)C[C@@H]21 [Compound 194*, 4-((1R,3s,5S,6r)-6-(3-(2-fluorophenyl)-1-isopropyl-1H-pyrazol-5-yl)bicyclo[3.1.0]hexan-3-yl)-1,4-oxazepane]
7.49 | 2.42 | 12.7 | CC(C)n1nc(-c2cccc(F)c2)cc1[C@H]1[C@@H]2C[C@H](N3CCCOCC3)C[C@@H]21 [Compound 195*, 4-((1R,3r,5S,6r)-6-(3-(3-Fluorophenyl)-1-isopropyl-1H-pyrazol-5-yl)bicyclo[3.1.0]hexan-3-yl)-1,4-oxazepane]
46.2 | 13.3 | 12.7 | CC(C)n1nc(-c2cccc(F)c2)cc1[C@H]1[C@@H]2C[C@@H](N3CCCOCC3)C[C@@H]21 [Compound 196*, 4-((1R,3s,5S,6r)-6-(3-(3-fluorophenyl)-1-isopropyl-1H-pyrazol-5-yl)bicyclo[3.1.0]hexan-3-yl)-1,4-oxazepane]
